Assay results published in US7186743B2, “Substituted pyrazolyl compounds for the treatment of inflammation” (Pharmacia Corporation, priority 2001, dated 2007).
Counter-ions that a name gives are not always drawn.

target: T1, IKK2 (Homo sapiens, UniProt O14920); test: IKKβ Resin Enzyme Assay (IKK2 resin); type: biochemical; conditions: Table 4; read-out: IKK2 Resin IC50
T1 construct: made in house; host or cells: insect cells (baculovirus, pFastBac; SF9)
T1 sequence (O14920 1-756): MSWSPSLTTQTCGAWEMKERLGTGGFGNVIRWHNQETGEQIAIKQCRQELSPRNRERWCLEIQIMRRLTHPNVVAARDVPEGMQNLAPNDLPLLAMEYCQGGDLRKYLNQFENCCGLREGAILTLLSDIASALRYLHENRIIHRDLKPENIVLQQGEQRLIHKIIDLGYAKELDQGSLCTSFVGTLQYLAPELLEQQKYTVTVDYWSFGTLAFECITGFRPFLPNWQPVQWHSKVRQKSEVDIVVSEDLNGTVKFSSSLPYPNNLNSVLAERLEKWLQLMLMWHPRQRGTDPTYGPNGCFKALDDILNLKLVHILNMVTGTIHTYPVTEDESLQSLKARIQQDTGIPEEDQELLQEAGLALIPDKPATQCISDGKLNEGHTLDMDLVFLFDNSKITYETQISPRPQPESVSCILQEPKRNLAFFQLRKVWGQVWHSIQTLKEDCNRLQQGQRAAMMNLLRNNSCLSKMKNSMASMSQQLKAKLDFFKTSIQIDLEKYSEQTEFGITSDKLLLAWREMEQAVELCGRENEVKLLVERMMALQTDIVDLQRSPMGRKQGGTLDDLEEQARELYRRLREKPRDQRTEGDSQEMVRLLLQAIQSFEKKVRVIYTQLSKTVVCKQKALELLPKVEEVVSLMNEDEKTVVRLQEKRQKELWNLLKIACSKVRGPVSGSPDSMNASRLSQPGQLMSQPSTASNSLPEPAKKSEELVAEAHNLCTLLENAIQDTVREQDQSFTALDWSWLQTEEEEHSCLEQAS
Procedure, shortened: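 Radiometric test: [γ-33P]ATP incorporation into a biotinylated IκBα peptide, 30 min at 25° C, pH 7.6 Hepes with MgCl2/MnCl2 and 1 μM cold ATP. Reaction is quenched with Dowex resin and the supernatant is counted. Kinase is FLAG-purified homodimeric recombinant human IKK2 from insect cells.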

SMILES	IC50 [nM]
NC(=O)c1nn(-c2ccc3c(c2)OCO3)c2c1CCc1ccc(NC(=O)c3ccc([N+](=O)[O-])cc3Cl)cc1-2 [Example 184, 1-(1,3-benzodiaxol-5-yl)-8-[(2-chloro-4-nitrobenzoyl)amino]-4,5-dihydro-1H-benzo[g]indazole-3-carboxamide]	≤ 1000
CS(=O)(=O)c1ccc(Cl)c(C(=O)Nc2ccc3c(c2)-c2c(c(C(N)=O)nn2-c2ccc4c(c2)OCO4)CC3)c1 [Example 185, 1-(1,3-benzodioxol-5-yl)-8-{[2-chloro-5-(methylsulfonyl)benzoyl]amino}-4,5-diliydro-1H-benzo[g]indazole-3-carboxamide]	≤ 1000
NC(=O)c1nn(-c2ccc3c(c2)OCO3)c2c1CCc1ccc(NC(=O)c3ccc(O)nc3)cc1-2 [Example 186, 1-(1,3-benzodioxol-5-yl)-8-{[(6-hydroxypyridin-3-yl)carbonyl]amino}-4,5-dihydro-1H-benzo[g]indazole-3-carboxamide]	≤ 1000
Cc1ccncc1C(=O)Nc1ccc2c(c1)-c1c(c(C(N)=O)nn1-c1ccc3c(c1)OCO3)CC2 [Example 187, 1-(1,3-benzodioxol-5-yl)-8-{[(4-methylpyridin-3-yl)carbonyl]amino}-4,5-dihydro-1H-benzo[g]indazole-3-carboxamide]	≤ 1000
NC(=O)c1nn(-c2ccc3c(c2)OCO3)c2c1CCc1ccc(NC(=O)c3cc(Cl)ccc3Cl)cc1-2 [Example 189, 1-(1,3-benzodioxol-5-yl)-8-[(2,5-dichlorobenzoyl)amino]-4,5-dihydro-1H-benzo[g]indazole-3-carboxamide]	≤ 1000
CSc1ccc(Cl)c(C(=O)Nc2ccc3c(c2)-c2c(c(C(N)=O)nn2-c2ccc4c(c2)OCO4)CC3)c1 [Example 190, 1-(1,3-benzodioxol-5-yl)-8-{2-chloro-5-[2-(methylthio)benzoyl]amino}-4,5-dihydro-1H-benzo[g]indazole-3-carboxamide]	≤ 1000
NC(=O)c1nn(-c2ccc3c(c2)OCO3)c2c1CCc1ccc(NC(=O)c3ccccc3[N+](=O)[O-])cc1-2 [Example 192, 1-(1,3-benzodioxol-5-yl)-8-[(2-nitrobenzoyl)amino]-4,5-dihydro-1H-benzo[g]indazole-3-carboxamide]	≤ 1000
NC(=O)c1nn(-c2ccc3c(c2)OCO3)c2c1CCc1ccc(NC(=O)c3cccc(Cl)c3Cl)cc1-2 [Example 194, 1-(1,3-benzodioxol-5-yl)-8-[(2,3-dichlorobenzoyl)amino]-4,5-dihydro-1H-benzo[g]indazole-3-carboxamide]	≤ 1000
NC(=O)c1nn(-c2ccc3c(c2)OCO3)c2c1CCc1ccc(NC(=O)c3ccc(Cl)cc3Cl)cc1-2 [Example 195, 1-(1,3-benzodioxol-5-yl)-8-[(2,4-dichlorobenzoyl)amino]-4,5-dihydro-1H-benzo[g]indazole-3-carboxamide]	≤ 1000
NC(=O)c1nn(-c2ccc3c(c2)OCO3)c2c1CCc1ccc(NC(=O)c3ccncc3)cc1-2 [Example 196, 1-(1,3-benzodioxol-5-yl)-8-(isonicotinoylamino)-4,5-dihydro-1H-benzo[g]indazole-3-carboxamide]	≤ 1000
Cc1c(O)cccc1C(=O)Nc1ccc2c(c1)-c1c(c(C(N)=O)nn1-c1ccc3c(c1)OCO3)CC2 [Example 198, 1-(1,3-benzodioxol-5-yl)-8-[(3-hydroxy-2-methylbenzoyl)amino]-4,5-dihydro-1H-benzo[g]indazole-3-carboxamide]	≤ 1000

same assay, conditions: Table 5; read-out: IKK2 Resin Avg. IC50

SMILES	IC50 [nM]
CN1CCN(c2ccc(Cl)c(C(=O)Nc3ccc4c(c3)-c3c(c(C(N)=O)nn3-c3ccc5c(c3)OCO5)CC4)n2)CC1 [Example 217, 1-(1,3-benzodioxol-5-yl)-8-({[3-chloro-6-(4-methylpiperazin-1-yl)pyridin-2-yl]carbonyl}amino)-4,5-dihydro-1H-benzo[g]indazole-3-carboxamide]	≤ 1000
CN(C)CCSc1ccc(Cl)c(C(=O)Nc2ccc3c(c2)-c2c(c(C(N)=O)nn2-c2ccc4c(c2)OCO4)CC3)n1 [Example 218, 1-(1,3-benzodioxol-5-yl)-8-{[(3-chloro-6-{[2-(dimethylamino)ethyl]thio}pyridin-2-yl)carbonyl]amino}-4,5-dihydro-1H-benzo[g]indazole-3-carboxamide]	≤ 1000

same assay, conditions: Table 6; read-out: IKK2 Resin IC 50

SMILES	IC50 [nM]
NC(=O)c1nn(-c2ccc(F)cc2)c2c1CCc1ccc(NC(=O)c3cc(Cl)cnc3Cl)cc1-2 [Example 223, 8-{[(2,5-dichloropyridin-3-yl)carbonyl]amino}-1-(4-fluorophenyl)-4,5-dihydro-1H-benzo[g]indazole-3-carboxamide]	≤ 1000
NC(=O)c1nn(-c2ccc(F)cc2)c2c1CCc1ccc(NC(=O)c3cccnc3Cl)cc1-2 [Example 225, 8-{[(2-chloropyridin-3-yl)carbonyl]amino}-1-(4-fluorophenyl)-4,5-dihydro-1H-benzo[g]indazole-3-carboxamide]	≤ 1000
CS(=O)(=O)c1ccc(C(=O)Nc2ccc3c(c2)-c2c(c(C(N)=O)nn2-c2ccc(F)cc2)CC3)c(Cl)c1 [Example 226, 8-{[2-chloro-4-(methylsulfonyl)benzoyl]amino}-1-(4-fluorophenyl)-4,5-dihydro-1H-benzo[g]indazole-3-carboxamide]	≤ 1000
Cc1ccc(C(=O)Nc2ccc3c(c2)-c2c(c(C(N)=O)nn2-c2ccc(F)cc2)CC3)c(Cl)n1 [Example 227, 8-{[(2-chloro-6-methylpyridin-3-yl)carbonyl]amino}-1-(4-fluorophenyl)-4,5-dihydro-1H-benzo[g]indazole-3-carboxamide]	≤ 1000
NC(=O)c1nn(-c2ccc(F)cc2)c2c1CCc1ccc(NC(=O)c3ccncc3Cl)cc1-2 [Example 228, 8-[(3-chloroisonicotinoyl)amino]1-(4-fluorophenyl)-4,5-dihydro-1H-benzo[g]indazole-3-carboxamide hydrochloride]	≤ 1000
NC(=O)c1nn(-c2ccc(F)cc2)c2c1CCc1ccc(NC(=O)c3cccc(N)c3Cl)cc1-2 [Example 229, 8-[(3-amino-2-chlorobenzoyl)amino]-1-(4-fluorophenyl)-4,5-dihydro-1H-benzo[g]indazole-3-carboxamide]	≤ 1000
NC(=O)c1nn(-c2ccc(F)cc2)c2c1CCc1ccc(NC(=O)c3ccccc3Cl)cc1-2 [Example 230, 8-[(2-chlorobenzoyl)amino]-1-(4-fluorophenyl)-4,5-dihydro-1H-benzo[g]indazole-3-carboxamide]	≤ 1000
Cc1c(O)cccc1C(=O)Nc1ccc2c(c1)-c1c(c(C(N)=O)nn1-c1ccc(F)cc1)CC2 [Example 231, 1-(4-fluorophenyl)-8-[(3-hydroxy-2-methylbenzoyl)amino]-4,5-dihydro-1H-benzo[g]indazole-3-carboxamide]	≤ 1000
NC(=O)c1nn(-c2ccc(F)cc2)c2c1CCc1ccc(NC(=O)c3ccc(N)cc3Cl)cc1-2 [Example 232, 8-[(4-amino-2-chlorobenzoyl)amino]-1-(4-fluorophenyl)-4,5-dihydro-1H-benzo[g]indazole-3-carboxamide]	≤ 1000
COc1ccc(C(=O)Nc2ccc3c(c2)-c2c(c(C(N)=O)nn2-c2ccc(F)cc2)CC3)c(Cl)c1 [Example 233, 8-[(2-chloro-4-methoxybenzoyl)amino]-1-(4-fluorophenyl)-4,5-dihydro-1H-benzo[g]indazole-3-carboxamide]	≤ 1000
NC(=O)c1nn(-c2ccc(F)cc2)c2c1CCc1ccc(NC(=O)c3ccc(C(F)(F)F)nc3Cl)cc1-2 [Example 234, 8-({[2-chloro-6-(trifluoromethyl)pyridin-3-yl]carbonyl}amino)-1-(4-fluorophenyl)-4,5-dihydro-1H-benzo[g]indazole-3-carboxamide]	≤ 1000
CSc1ccc(Cl)c(C(=O)Nc2ccc3c(c2)-c2c(c(C(N)=O)nn2-c2ccc(F)cc2)CC3)c1 [Example 235, 8-{[2-chloro-5-(methylthio)benzoyl]amino}-1-(4-fluorophenyl)-4,5-dihydro-1H-benzo[g]indazole-3-carboxamide]	≤ 1000
NC(=O)c1nn(-c2ccc(F)cc2)c2c1CCc1ccc(NC(=O)c3cc(N)ccc3Cl)cc1-2 [Example 236, 8-[(5-amino-2-chlorobenzoyl)amino]-1-(4-fluorophenyl)-4,5-dibydro-1H-benzo[g]indazole-3-carboxamide]	≤ 1000
CN(C)c1ccc(Cl)c(C(=O)Nc2ccc3c(c2)-c2c(c(C(N)=O)nn2-c2ccc(F)cc2)CC3)c1 [Example 237, 8-{[2-chloro-5-(dimethylamino)benzoyl]amino}-1-(4-fluorophenyl)-4,5-dihydro-1H-benzo[g]indazole-3-carboxamide]	≤ 1000
NC(=O)c1nn(-c2ccc(F)cc2)c2c1CCc1ccc(NC(=O)c3cccc(Cl)c3Cl)cc1-2 [Example 238, 8-[(2,3-dichlorobenzoyl)amino]-1-(4-fluorophenyl)-4,5-dihydro-1Hbenzo[g]indazole-3-carboxamide]	≤ 1000
